PMC7999182, “Interaction of Remdesivir with Clinically Relevant Hepatic Drug Uptake Transporters” (Pharmaceutics, 2021)

Experiments:
OATP1B3 [1] = biological target: T1, OATP1B3 (Homo sapiens, UniProt Q9NPD5); assay: Inhibition of OATP1B3-mediated estradiol glucuronide uptake; assay type: cell-based
T1 construct: expressed in transfected cells
T1 sequence (Q9NPD5 1-702): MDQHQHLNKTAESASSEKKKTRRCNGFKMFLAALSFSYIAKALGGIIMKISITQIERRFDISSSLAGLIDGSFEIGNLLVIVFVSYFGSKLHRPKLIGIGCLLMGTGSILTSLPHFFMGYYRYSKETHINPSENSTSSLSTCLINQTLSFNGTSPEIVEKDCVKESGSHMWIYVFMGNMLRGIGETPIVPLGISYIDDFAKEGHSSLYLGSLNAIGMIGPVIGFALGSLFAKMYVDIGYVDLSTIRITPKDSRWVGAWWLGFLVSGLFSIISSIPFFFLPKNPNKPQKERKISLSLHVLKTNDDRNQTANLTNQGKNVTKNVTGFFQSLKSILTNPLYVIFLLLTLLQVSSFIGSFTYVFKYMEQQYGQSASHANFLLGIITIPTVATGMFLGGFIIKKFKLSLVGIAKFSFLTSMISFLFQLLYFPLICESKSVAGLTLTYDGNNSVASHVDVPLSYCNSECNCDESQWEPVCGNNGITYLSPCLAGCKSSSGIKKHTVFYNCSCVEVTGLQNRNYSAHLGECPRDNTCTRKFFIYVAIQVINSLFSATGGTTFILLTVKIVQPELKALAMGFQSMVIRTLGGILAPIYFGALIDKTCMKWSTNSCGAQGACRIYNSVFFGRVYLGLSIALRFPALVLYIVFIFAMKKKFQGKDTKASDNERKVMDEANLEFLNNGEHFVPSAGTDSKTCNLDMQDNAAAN
From the text: (§1) Generation, cultivation and characterization of human embryonic kidney (HEK) cells stably expressing OATP1B1 refseq (=OATP1B1*1a), OATP1B1*1b, OATP1B1*5 and OATP1B1*15 [18], OATP1B3 [19], OATP2B1 [13] and OCT1 [20] have been described previously. OATP1B1 cells were cultivated in minimal essential medium (Life Technologies, Paisley, UK) and OATP1B3, OATP2B1 and OCT1 cells were cultivated in Dulbecco’s modified Eagle medium (Sigma, Darmstadt, Germany). Cultivation media were supplemented with 10% fetal calf serum, 100 U/mL penicillin and 100 µg/mL streptomycin. Cells were grown at 37 °C and 5% CO2. Functionality of the cells was confirmed by measuring uptake of prototypic substrates (see Section 2.3 and supplementary material).
(§2) Prototypic substrate uptake was performed as described previously. For this, uptake solutions contained the respective substrate with tracer amounts of radiolabeled substrate. In case of inhibition studies, uptake solutions additionally contained different concentrations of remdesivir. […] Cells were then lysed with 0.2% sodium dodecyl sulfate and intracellular radioactivity was measured by liquid scintillation counting (Tricarb2800, PerkinElmer Life Sciences GmbH, Rodgau, Germany or Hidex 300SL TDCR liquid scintillation counter, Turku, Finland). […]

OCT1 = biological target: T2, OCT1 (Homo sapiens, UniProt O15245); assay: Inhibition of OCT1-mediated metformin uptake; assay type: cell-based
T2 construct: expressed in transfected cells
T2 sequence (O15245 1-554): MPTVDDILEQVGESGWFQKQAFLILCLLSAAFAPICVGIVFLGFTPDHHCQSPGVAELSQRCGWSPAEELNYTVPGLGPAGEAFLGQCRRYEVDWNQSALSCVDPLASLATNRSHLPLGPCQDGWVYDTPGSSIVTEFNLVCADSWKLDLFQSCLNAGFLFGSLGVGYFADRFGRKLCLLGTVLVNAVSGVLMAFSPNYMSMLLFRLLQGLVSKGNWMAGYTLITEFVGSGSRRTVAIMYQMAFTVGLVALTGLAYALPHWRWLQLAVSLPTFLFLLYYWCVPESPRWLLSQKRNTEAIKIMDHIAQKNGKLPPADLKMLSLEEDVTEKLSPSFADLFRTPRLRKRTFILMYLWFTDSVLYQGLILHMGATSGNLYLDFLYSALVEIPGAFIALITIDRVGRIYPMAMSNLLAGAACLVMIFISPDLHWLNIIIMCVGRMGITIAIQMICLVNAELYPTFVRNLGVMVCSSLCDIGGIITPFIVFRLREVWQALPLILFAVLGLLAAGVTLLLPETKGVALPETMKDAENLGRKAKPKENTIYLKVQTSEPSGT
From the text: as §1, §2

OATP1B3 [2] = test system: OATP1B3; parameters: method as in earlier work; settings: prototypic substrate not stated; cited from earlier work
OATP2B1 = test system: OATP2B1; parameters: method as in PMID 33435273; settings: pyranine transport; cited from earlier work

With `CCC(CC)COC(=O)[C@H](C)N[P@](=O)(OC[C@H]1O[C@@](C#N)(c2ccc3c(N)ncnn23)[C@H](O)[C@@H]1O)Oc1ccccc1` [Remdesivir] the “Effect on prototypic substrate uptake” value (OATP1B3 [1]; 5 µM estradiol glucuronide, 5 min uptake, different remdesivir concentrations) was “significant concentration-dependent inhibitory effect”, the “Transporter inhibition at 10 µM” value (OATP1B3 [1]; 10 µM remdesivir, estradiol glucuronide as substrate) was “inhibition” and the “Effect on prototypic substrate uptake” value (OCT1; 5 µM metformin, 5 min uptake, different remdesivir concentrations) was “significant concentration-dependent inhibitory effect”. The “Transporter inhibition at 10 µM” value (OCT1; 10 µM remdesivir, metformin as substrate) was “inhibition”, the IC50 (OATP1B3 [2]) was 2100 nM and the IC50 (OATP2B1) was 3.8 µM.
